According to patent US11484543B2, “Compositions and methods for diagnosing and treating diseases and disorders associated with mutant KCNJ5” (The Rockefeller University, priority 2017, dated 2022):
Where a chain is given by its changes, count along the chain named. Where two headings read alike, the source gives them in different places.

Columns and labels:
Format in all cases: cell-based
KCNJ5^G151R = target: T1, KCNJ5^G151R (Homo sapiens, UniProt P48544, G151R); assay: cell-based; conditions: for inhibition of KCNJ5^MUT (structure-activity statement): macrolide series, dilution curves
T1 construct: expressed in transfected cells
T1 sequence (P48544 1-419 G151R): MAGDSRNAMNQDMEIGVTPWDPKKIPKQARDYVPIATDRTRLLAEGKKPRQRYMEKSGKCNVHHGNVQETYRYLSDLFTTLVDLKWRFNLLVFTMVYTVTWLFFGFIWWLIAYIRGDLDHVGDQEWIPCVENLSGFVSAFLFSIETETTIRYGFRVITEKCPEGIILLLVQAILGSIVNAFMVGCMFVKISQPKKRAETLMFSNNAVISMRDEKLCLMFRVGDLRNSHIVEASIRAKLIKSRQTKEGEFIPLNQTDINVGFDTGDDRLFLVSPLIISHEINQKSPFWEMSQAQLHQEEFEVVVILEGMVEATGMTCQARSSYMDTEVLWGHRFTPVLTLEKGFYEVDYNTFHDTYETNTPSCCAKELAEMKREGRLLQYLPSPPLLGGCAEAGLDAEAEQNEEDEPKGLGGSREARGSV
Procedure: (§1) WT or mutant human KCNJ5 cDNAs (Choi et al., 2011, Science 331:768-772) were subcloned into the pcDNA5/FRT/TO vector using BamHI and HindIII. Single copies of WT or mutant human KCNJ5 cDNAs expressed under the control of tetracycline-inducible promoter were introduced into HEK293 cells using the Flp-in T-Rex System (Invitrogen) according to the manufacturer's instructions. Cells were grown in selective media containing 10% Tet-system approved FBS (Clontech) until induction.
(§2) Assay plates were centrifuged and incubated overnight at 37° C. 20 nL was transferred from the compound source plate to the cell assay plate using an Aquarius (Tecan) with a 384-well pin tool (V&P Scientific). The final concentration of compound for screening was 10 μM and the final DMSO concentration was 0.1%. 1 μL of tetracycline (final concentration 1 μg/mL) was added to compound containing and negative control wells by Multidrop Combi to induce expression. 1 μL of media was added to positive control wells. Assay plates were centrifuged and incubated for 72 hours at 37° C., 5% CO2. CellTiter-Glo (Promega) was used to measure cell viability in the assay wells according to the manufacturer's instructions. 10 μL/well of CellTiter-Glo reagent was added to the assay plates using a MultiDrop Combi. The plates were shaken on a Thermomixer R (Eppendorf) at 1100 rpm for 1 minute and incubated in the dark for 10 minutes at room temperature. Luminescence was read on an Envision plate reader (PerkinElmer) with 0.3 second sampling time per well. Raw data (luminescence counts per second) was normalized to percent effect by the formula 100−(((sample−negative control mean)/(positive control mean−negative control mean))*100).
(§3) Data was analyzed using the programs Excel (Microsoft) and Prism (GraphPad). Errors are SD unless otherwise indicated in the legend. Dose-response curves were fitted with a four-parameter logistic equation: F(x)=D+(A−D)/(1+(x/C)^B), with A=minimum inhibition B=Hill's slope C=inflection point D=maximum inhibition Synthesis of Macrolide Derivatives
(§4) Cellular ATP levels were measured as a proxy for cell viability, using a commercially available luciferase assay (Crouch et al., 1993, Proc. Natl. Acad. Sci. U.S.A. 109:2533-2538).
(§5) Conditions were designed to maximize reproducibility and the signal-to-background ratios (S/B) (Zhang et al., 1999, J. Biomol. Screen 4:67-73) comparing ATP level in uninduced and induced cells. Screening was performed in 384-well plates; compounds were added 24 hours after plating, and channel expression was induced immediately after compound addition. ATP levels were measured 72 hours after induction.
Levels of ATP in uninduced and induced cells without added test compound defined 100% and 0% effect, respectively, and served as a proxy for lethality.

KCNJ5^L168R = target: T2, KCNJ5^L168R (Homo sapiens, UniProt P48544, L168R); assay: Cell viability assay (ATP, CellTiter-Glo): rescue of KCNJ5^L168R-induced lethality in inducible HEK293 cells; conditions: for L168R IC50 / IC50 / L168R maximum inhibition / L168R minimum inhibition: 10-point dilution 20 to 0.0391 μM, N=3, four-parameter fit; for dose response on KCNJ5^L168R: tested at 1.1, 3.3 and 10 μM
T2 construct: expressed in transfected cells
T2 sequence (P48544 1-419 L168R): T1 sequence (P48544 1-419 G151R) with R151G, L168R
Procedure: as §1, §2, §3, §4, §5

KCNJ5^WT = target: T3, KCNJ5^WT (Homo sapiens, UniProt P48544); assay: Membrane potential assay (FLIPR dye) in inducible KCNJ5^WT HEK293 cells; conditions: for WT IC50: 10-point dilution 20 to 0.0391 μM, N=3, four-parameter fit
T3 construct: expressed in transfected cells
T3 sequence (P48544 1-419): T1 sequence (P48544 1-419 G151R) with R151G
Procedure: as §1, with “Single” for “WT or mutant human KCNJ5 cDNAs (Choi et al., 2011, Science 331:768-772) were subcloned into the pcDNA5/FRT/TO vector using BamHI and HindIII. Single”
20 μL of WT cells were plated into sterile black with clear bottom tissue culture-treated 384-well plates (Corning) at a density of 10000 cells/well using a Multidrop Combi. Assay plates were centrifuged at 500 rpm for 10 seconds and incubated overnight at 37° C. in a humidified 5% CO2 incubator. After the overnight incubation, 1 μL of tetracycline (final conc. 1 μg/mL) was added to all wells by Multidrop Combi to induce KCNJ5. Assay plates were centrifuged at 500 rpm for 10 seconds and incubated overnight at 37° C. in a humidified 5% CO2 incubator. The next day, 10 μL of medium was removed from each well using a PlateMate Plus (Thermo Scientific). 10 μL of Blue Formula FLIPR membrane potential dye (Molecular Devices) was added to cells using a Multichannel pipettor. Assay plates were incubated for 30 minutes. at 37° C. After incubation, 20 nL was transferred twice from the compound source plate to the cell assay plate using an Aquarius with a 384-well pin tool for a total transfer volume of 40 nL and a final DMSO concentration of 0.2%. 1 μL of 20 mM BaCl2 was added to positive control wells using a Multichannel pipettor. The assay plate was incubated 20 minutes at room temperature in the dark.
Changes in membrane potential were detected using a well-established fluorescence-based measure of membrane potential (FIG. 4).

[1] = tested as in FIG. 7 (FIGS. 9 and 10)
[2] = 10-point dilution 20 to 0.0391 μM, N=3, four-parameter fit

SMILES	inhibition of KCNJ5^G151R by synthesized macrolide derivatives (KCNJ5^G151R; [1])	inhibition of KCNJ5^L168R by synthesized macrolide derivatives (KCNJ5^L168R; [1])	inhibition of KCNJ5^WT by synthesized macrolide derivatives (KCNJ5^WT; [1])	G151R maximum inhibition (KCNJ5^G151R; [2]) [%]	G151R minimum inhibition (KCNJ5^G151R; [2]) [%]	IC50 (KCNJ5^G151R; [2]) [µM]	L168R IC50 (KCNJ5^L168R)	WT IC50 (KCNJ5^WT)	IC50 (KCNJ5^L168R) [µM]	L168R maximum inhibition (KCNJ5^L168R) [%]	L168R minimum inhibition (KCNJ5^L168R) [%]	inhibition of KCNJ5^MUT (structure-activity statement) (KCNJ5^G151R)	dose response on KCNJ5^L168R (KCNJ5^L168R)	G151R IC50 (KCNJ5^G151R; [2])	WT IC50 (KCNJ5^WT; listed as idremcinal)	viability at 10 µM (KCNJ5^G151R; HEK293, 72 h, mean of primary screen and hit pick, read-out: mean % effect) [%]	viability at 10 µM (KCNJ5^G151R; HEK293, ATP level 72 h after induction, uninduced = 100%, induced = 0% effect, first of the two runs (primary screen / hit pick), read-out: % effect (1)) [%]	viability at 10 µM (KCNJ5^G151R; HEK293, ATP level 72 h after induction, uninduced = 100%, induced = 0% effect, second of the two runs (primary screen / hit pick, confirmatory testing), read-out: % effect (2)) [%]
CCCCN(C)[C@H]1C[C@@H](C)O[C@@H](O[C@@H]2[C@@H](C)[C@H](O[C@H]3C[C@@](C)(OC)[C@@H](O)[C@H](C)O3)[C@@H](C)C(=O)O[C@H](CC)[C@@](C)(O)[C@H](O)[C@@H](C)[C@@H](O)[C@H](C)C[C@@]2(C)O)[C@@H]1O [PLUX33, N-demethyl-9-deoxo-9-hydroxy-N-butyl-(9S)-erythromycin]	significant inhibition	significant inhibition	no inhibition															
CC[C@H]1OC(=O)[C@H](C)[C@@H](O[C@H]2C[C@@](C)(OC)[C@@H](O)[C@H](C)O2)[C@H](C)[C@@H](O[C@@H]2O[C@H](C)C[C@H](N(C)C)[C@H]2O)[C@](C)(O)C[C@@H](C)[C@@H]2N[C@@H](COCCOC)O[C@H]([C@H]2C)[C@]1(C)O [Dirithromycin, dirithromycin]				18.29	1.31	15.8	No fit	No fit										
CC[C@H]1OC(=O)[C@H](C)[C@@H](O[C@H]2C[C@@](C)(OC)[C@@H](O)[C@H](C)O2)[C@H](C)[C@@H](O[C@@H]2O[C@H](C)C[C@H](N(C)C)[C@H]2O)[C@](C)(O)C[C@@H](C)CN(C)[C@H](C)[C@@H](O)[C@]1(C)O [Azithromycin, azithromycin]				32.00	5.11	5.69		No fit	8.05	12.01	0.71							
CC[C@H]1OC(=O)[C@H](C)[C@@H](O[C@H]2C[C@@](C)(OC)[C@@H](O)[C@H](C)O2)[C@H](C)[C@@H](O[C@@H]2O[C@H](C)C[C@H](N(C)C)[C@H]2O)[C@](C)(OC)C[C@@H](C)C(=O)[C@H](C)[C@@H](O)[C@]1(C)O [Clarithromycin, clarithromycin]				83.09	6.40	0.71		No fit	1.72	55.70	2.35	potent effects	showed a dose response					
CC[C@H]1OC(=O)[C@H](C)[C@@H](O[C@H]2C[C@@](C)(OC)[C@@H](O)[C@H](C)O2)[C@H](C)[C@@H](O[C@@H]2O[C@H](C)C[C@H](N(C)C)[C@H]2O)[C@](C)(O)C[C@](C)(F)C(=O)[C@H](C)[C@@H](O)[C@]1(C)O [Flurithromycin, flurithromycin]							No fit	No fit				negligible activity		No fit				
CC[C@H]1OC(=O)[C@H](C)[C@@H](O[C@H]2C[C@@](C)(OC)[C@@H](O)[C@H](C)O2)[C@H](C)[C@@H](O[C@@H]2O[C@H](C)C[C@H](N(C)C)[C@H]2O)[C@@]2(C)C[C@@H](C)[C@@]3(O[C@@]1(C)[C@H](O)[C@H]3C)O2 [Anhydroerythromycin A, anhydroerythromycin A]				60.00	5.61	8.6	No fit	No fit										
CC[C@H]1OC(=O)[C@H](C)[C@@H](O[C@H]2C[C@@](C)(OC)[C@@H](O)[C@H](C)O2)[C@H](C)[C@@H](O[C@@H]2O[C@H](C)C[C@H](N(C)C(C)C)[C@H]2O)[C@@]2(C)CC(C)=C(O2)[C@H](C)[C@@H](O)[C@]1(C)O [Idremcinal, idremcinal]				93.39	6.38	0.6		No fit	1.99	66.69	−1.28				no dose response			
CC[C@H]1OC(=O)[C@H](C)[C@@H](O[C@H]2C[C@@](C)(OC)[C@@H](O)[C@H](C)O2)[C@H](C)[C@@H](O[C@@H]2O[C@H](C)C[C@H](N(C)C)[C@H]2O)[C@](C)(O)C[C@@H](C)C(=O)[C@H](C)[C@@H](O)[C@]1(C)O [Erythromycin, erythromycin]				90.00	3.55	10.5		No fit	11.8	25.00	0.71		showed a dose response			73	91.9	54.2
